# Measurements: US9242951B2, “Covalent inhibition of bacterial quorum sensing” (priority 2009, dated 2016)
# Like-named read-outs stand apart in the source and are kept apart here.
# Legend:
# [1] = molecular target: T1, LasR-LBD (Pseudomonas aeruginosa, UniProt P25084); experiment: Expression of LasR-LBD in presence of probe; covalent labeling by LC-MS and soluble protein by SDS-PAGE; type: binding, P. aeruginosa; conditions: for covalent modification of purified LasR-LBD (LC-MS): 10-100 micro-M compound in bacterial growth culture; for soluble LasR-LBD obtained on expression in presence of compound: SDS-PAGE of purified protein
# T1 construct: His6; made in house; host or cells: E. coli BL21 (pETM-11)
# Experimental: All MS analyses were performed on a LCQ Fleet mass spectrometer (Thermo Scientific) with an ESI source. Spectra were collected in positive ion mode and analyzed by Xcalibur and Promass software (Thermo Scientific). For LC/MS analyses a Surveyor Plus HPLC System (Thermo Scientific) was used, equipped with a Luna C18, 5 μm (150×4.6 mm) column at a flow rate of 0.5 mL/min, using a mobile phase linear gradient of 0.1% aqueous formic acid (solvent A) and CH3CN containing 0.1% formic acid (solvent B).
# The expression of full length LasR was previously found to yield largely insoluble protein in the presence or absence of the native ligand, 3-oxo-C12-HSL (Bottomley, M. J., Muraglia, E., Bazzo, R. & Carfi, A. Molecular insights into quorum sensing in the human pathogen Pseudomonas aeruginosa from the structure of the virulence regulator LasR bound to its autoinducer. J Biol Chem 282, 13592-600 (2007)). Therefore, expression was performed using a strain transformed with a pETM-11 vector encoding for a shortened, His6-tagged LasR construct, LasR-LBD (ligand-binding domain), spanning residues Met-1 to Lys-173. The plasmid was transferred into E. coli BL21 and cells were incubated in 1 mL rich LB medium for 1 hour. The cells were then grown on LB agar plates containing kanamycin (50 micro-g/mL). For expression, a single colony was selected and transferred into 5 mL of rich LB medium containing kanamycin and grown overnight. Proteins were expressed in the presence of either native 3-oxo-C12-HSL or different inhibitors and purified by Ni^2+ affinity chromatography as previously described (Bottomley, M. J., Muraglia, E., Bazzo, R. & Carfi, A. Molecular insights into quorum sensing in the human pathogen Pseudomonas aeruginosa from the structure of the virulence regulator LasR bound to its autoinducer. J Biol Chem 282, 13592-600 (2007), yielding ˜70 mg of purified protein per liter of LB medium using large scale expression conditions, and ˜0.5-1 mg of purified protein from 50 mL of LB medium using small scale expression conditions. The purification process was monitored by SDS-PAGE electrophoresis and the molecular mass of the purified proteins was confirmed by mass spectrometry.
# 1 mL of the overnight grown cell culture was used to inoculate 1 liter of rich LB medium containing kanamycin (50 micro-g/mL) and 10-100 micro-M of 3-oxo-C12-HSL or inhibitors 7a-c and 11a-g. Cells were grown to an optical density (OD600 nm) of 0.4, after which expression was induced at 21° C. by addition of 0.2 mM isopropyl 1-thio-beta-D-galactopyranoside (IPTG) and an additional amount of ligand/inhibitor was added to the media. After reaching an OD600 nm of 1.4 (approx. 6-8 hours), cells were centrifuged at 6000 rpm, washed and resuspended in lysis buffer containing 5 mM imidazole, 300 mM NaCl, 50 mM Tris-HCl, pH 8. Cells were ultrasonicated for 2 minutes at 70% amplitude for two cycles. The lysate was centrifuged at 12,000 rpm for 30 minutes, and the supernatants were purified by Ni^2+ affinity chromatography.
# Small scale expression was performed in 50 mL volume following the previous procedure. Cells were harvested by chemical lysis, adding 1 mL of lysis buffer (5 mM imidazole, 300 mM NaCl, 0.2% (v/v) Triton X-100, 0.75 μg/mL DNase-I, 0.05 mM MgCl2, 0.01 mM CaCl2, 50 mM Tris-HCl, pH 8, and 0.01% (v/v) protein inhibitor cocktail), and incubated for 60 minutes at 37° C. Cell debris was removed by centrifugation at 4,000 rpm for 15 minutes. […]
# [2] = test system: LasI reporter coupled to the luxCDABE luminescence system; experiment: P. aeruginosa PAO-JP2 QS agonist/antagonist assay (luminescence reporter); type: cell-based; conditions: for IC50: Pseudomonas aeruginosa, read-out: IC50, 3-oxo-C12-HSL antagonist activity in PAO-JP2
# Experimental: P. aeruginosa PAO-JP2 QS Agonist/Antagonist Assay.
# PAO-JP2, a lasI/rhlI-deleted strain harboring plasmid pKD201 containing a LasI reporter coupled to the luxCDABE luminescence system (see above), was incubated overnight in LB medium containing 300 micro-g/ml of trimethoprim. A 96-well black microtiter plate (Greiner) was prepared as described for the PA01 inhibition assay. The relative luminescence was then plotted against the added inhibitor concentration; IC50 values were calculated using Grafit 6.0 (Erithacus Software). For antagonist experiments, a final concentration of 50 nM 3-oxo-C12-HSL was used.
# [3] = test system: LasI reporter coupled to the luxCDABE luminescence system; experiment: P. aeruginosa wild-type strain (PA01) QS inhibition assay (luminescence reporter); type: cell-based; conditions: for IC50: Pseudomonas aeruginosa, PAO1, read-out: IC50, inhibition of luminescence in wild type PAO1 reporter strain; for inhibition of lasI expression in PAO1-luxCDABE (virulence): FIG. 9
# Experimental: P. aeruginosa Wild-Type Strain (PA01) QS Inhibition Assay.
# The P. aeruginosa PA01 wild type strain harboring plasmid pKD201 containing a LasI reporter coupled to the luxCDABE luminescence system (Duan, K. & Surette, M. G. Environmental regulation of Pseudomonas aeruginosa PAO1 Las and Rhl quorum-sensing systems. J Bacteriol 189, 4827-36 (2007)), was incubated overnight in LB medium containing 300 micro-g/ml of trimethoprim. A 96-well black microtiter plate (Greiner) was prepared with the desired concentrations of inhibitors (up to 1 mM, above which growth inhibition was observed), and bacteria were added to reach a final absorbance density (OD600 nm) of 0.015. The plate was then incubated for a period of 12 hours at 37° C. During this time, luminescence measurements were performed at 10 minute intervals. The relative luminescence was then plotted against the added inhibitor concentration; IC50 values were calculated using Grafit 6.0 (Erithacus Software).
# [4] = molecular target: T2, LasR (Pseudomonas aeruginosa, UniProt P25084); experiment: E. coli DH5-alpha LasR agonist/antagonist assay (PlasI-lacZ, beta-galactosidase); type: cell-based, P. aeruginosa
# T2 construct: expressed in transfected cells; host or cells: E. coli DH5-alpha (pJN105L + pSC11 PlasI-lacZ)
# Experimental: E. coli DH5-Alpha LasR Agonist/Antagonist Assay.
# E. coli DH5-alpha harboring the LasR expression vector. pJN105L, and a plasmid-borne PlasI-lacZ fusion (pSC11) (Lee, J. H., Lequette, Y. & Greenberg, E. P. Activity of purified QscR, a Pseudomonas aeruginosa orphan quorum-sensing transcription factor. Mol Microbiol 59, 602-9 (2006)) was used to quantify quorum sensing inhibition by measuring expression levels of beta-galactosidase. Bacteria were incubated overnight in LB medium containing 100 micro-g/mL of ampicillin and 15 micro-g/mL of gentamicin. The culture was diluted at a 1:10 ratio by volume with fresh medium and further incubated until an OD600 nm of 0.3 was reached. A 96 well microtiter plate (Greiner) was prepared with the desired concentrations of inhibitors and bacteria were added to reach a final absorbance density (OD600 nm) of 0.3. Expression was induced at the edition of L-(+)-arabinose (4 mg/mL) and the plates were incubated at 37° C. for a period of 4 hours (OD600 nm of 0.45-0.5). The cultures were then assayed for beta-galactosidase activity according to the Miller assay method^46: […] were transferred to clear 96-well microtiter plates and the OD600 was recorded. […] was then added to a polypropylene-based 96-well microtiter plate containing […] of 0.1% SDS (w/v). Wells were thoroughly rinsed by pipetation, after which the chloroform was allowed to settle. […] upper layer was transferred to a fresh 96-well microtiter plate and […]-beta-D-galactopyranoside (ONPG, 4 mg/mL in phosphate buffer of pH 7) were added. The plates were incubated 35 minutes at 28° C. The reaction was terminated with the addition of […] sodium carbonate solution, and absorption at two wavelengths (550 nm, 429 nm) was recorded. Miller units were calculated using standard methods (Miller, J. H. Experiments in Molecular Genetics. 352-355 (Cold Spring Harbor Laboratories, 1972)). For antagonist experiments, a final concentration of 50 nM 3-oxo-C12-HSL was used.
# [5] = test system: wild type P. aeruginosa PAO1 strain; experiment: Biofilm formation of wild type PAO1 in microtiter plates; type: cell-based; conditions: 50 micro-M, 24 h, versus DMSO
# Experimental: (§1) To assess whether the reactive probes inhibit QS-regulated activities, such as biofilm formation and pyocyanin production, the wild type P. aeruginosa PAO1 strain was incubated in the presence of itc-12 and 4-Br-PHL (both at 50 micro-M), or DMSO, as a control, in microtiter plates that allow analysis of 24 h biofilm formation and in vials allowing measurement of 36 h pyocyanin production. […] However, even a partial reduction in biofilm formation may be sufficient to render the bacteria vulnerable to host responses, as not only is total biofilm mass affected upon disruption of QS, but also is its architecture, its degree of porosity and its extent of flexibility and robustness.
# [6] = test system: wild type P. aeruginosa PAO1 strain; experiment: Pyocyanin production of wild type PAO1; type: cell-based; conditions: 50 micro-M, 36 h, versus DMSO
# Experimental: as §1
# [7] = molecular target: T2, LasR; conditions: read-out: IC50 reported by Geske et al.; E. coli-based LasR antagonist assay, literature value; cited from earlier work
# [8] = molecular target: T3, LasR-LBD Cys79Ala mutant (Pseudomonas aeruginosa, UniProt P25084, C79A); experiment: Expression of LasR-LBD Cys79Ala mutant in presence of probe, covalent labeling; type: binding, P. aeruginosa
# T3 construct: His6; made in house; host or cells: bacteria (E. coli BL21 as for wild-type LasR-LBD, inferred)
# [9] = molecular target: T4, LasR-LBD Cys79Ser mutation (Pseudomonas aeruginosa, UniProt P25084, C79S); experiment: Expression of LasR-LBD Cys79Ser mutant in presence of probe, covalent labeling; type: binding, P. aeruginosa
# T4 construct: His6; made in house; host or cells: bacteria (E. coli BL21 as for wild-type LasR-LBD, inferred)
# T4 sequence (P25084 1-173 C79S): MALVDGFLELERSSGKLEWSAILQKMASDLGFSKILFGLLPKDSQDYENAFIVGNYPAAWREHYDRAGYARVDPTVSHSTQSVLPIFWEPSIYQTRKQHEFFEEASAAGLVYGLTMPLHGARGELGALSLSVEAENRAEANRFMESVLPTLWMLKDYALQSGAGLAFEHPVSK
# T2 sequence (P25084 whole entry): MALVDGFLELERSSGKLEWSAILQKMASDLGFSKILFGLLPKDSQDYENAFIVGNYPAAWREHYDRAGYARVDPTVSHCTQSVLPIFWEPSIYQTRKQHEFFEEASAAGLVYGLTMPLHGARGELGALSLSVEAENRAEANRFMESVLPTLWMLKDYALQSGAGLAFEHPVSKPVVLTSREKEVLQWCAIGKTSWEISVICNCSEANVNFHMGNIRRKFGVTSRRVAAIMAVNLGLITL
# T1 sequence (P25084 1-173): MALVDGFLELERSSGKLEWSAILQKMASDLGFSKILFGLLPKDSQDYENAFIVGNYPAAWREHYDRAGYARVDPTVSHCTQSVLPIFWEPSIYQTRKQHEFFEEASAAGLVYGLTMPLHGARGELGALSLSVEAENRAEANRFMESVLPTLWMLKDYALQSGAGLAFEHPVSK
# T3 sequence (P25084 1-173 C79A): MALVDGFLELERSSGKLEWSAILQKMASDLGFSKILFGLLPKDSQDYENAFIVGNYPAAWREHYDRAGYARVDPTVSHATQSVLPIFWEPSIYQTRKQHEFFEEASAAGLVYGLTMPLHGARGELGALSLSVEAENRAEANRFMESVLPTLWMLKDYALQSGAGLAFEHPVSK
SMILES,covalent modification of purified LasR-LBD (LC-MS) [1],IC50 [3],IC50 [4],IC50 [2],also measured
"[N-]=[N+]=NCCCCCCCCCC(=O)CC(=O)NC1CCOC1=O (stereo not drawn) [azido-C12, 12-azido-3-oxo-N-(2-oxotetrahydrofuran-3-yl)dodecanamide]",no covalently labeled product,–,–,–,inhibitory activity compared with itc-12 ([2]; data not shown): significantly lower than that of itc-12
"O=C(Cc1ccc(Br)cc1)NC1CCOC1=O (stereo not drawn) [4-Br-PHL, 2-(4-bromophenyl)-N-(2-oxo-tetrahydrofuran-3-yl)-acetamide, reference compound]",–,~250 µM,4.8 ± 0.5 µM,~200 µM,soluble LasR-LBD obtained on expression in presence of compound [1]: no soluble LasR was observed; inhibition of biofilm formation [5]: significantly inhibited; inhibition of pyocyanin production [6]: significantly inhibited; IC50 [7]: 3.9 µM
"O=C(CCCCCCCCCS)CC(=O)NC1CCOC1=O (stereo not drawn) [thiol-11, 12-Mercapto-3-Oxo-N-(2-Oxotetrahydrofuran-3-yl)Dodecanamide]",–,–,–,–,inhibition of lasI expression in PAO1-luxCDABE (virulence) [3]: dose-dependent manner
"O=C(CCCCCCCCCCN=C=S)CC(=O)NC1CCOC1=O (stereo not drawn) [itc-13, 13-isothiocyanato-3-oxo-N-(2-oxotetrahydrofuran-3-yl)tridecanamide]",–,45.2 ± 0.7 µM,19.2 ± 3.9 µM,30 ± 7 µM,–
"O=C(CCCCCCCCCN=C=S)CC(=O)NC1CCOC1=O (stereo not drawn) [itc-12, 12-isothiocyanato-3-oxo-N-(2-oxotetrahydrofuran-3-yl)dodecanamide]",covalently modified,113 ± 19 µM,29.8 ± 0.5 µM,134 ± 6 µM,"inhibition of lasI expression in PAO1-luxCDABE (virulence) [3]: dose-dependent manner; soluble protein, LasR-LBD Cys79Ala mutant [8]: Soluble protein was, however, obtained; covalent modification of LasR-LBD Cys79Ala mutant ([8]; data not shown): no covalent modification was detected; covalent modification of LasR-LBD Cys79Ser [9]: no covalent modification being observed; soluble protein, LasR-LBD Cys79Ser [9]: yielded expression of soluble protein; soluble LasR-LBD obtained on expression in presence of compound [1]: larger amounts of soluble LasR-LBD; inhibition of biofilm formation [5]: significantly inhibited; inhibition of pyocyanin production [6]: significantly inhibited; agonism in PAO-JP2-based reporter ([2]; markedly reduced levels compared to natural autoinducer): partial agonism patterns"
O=C(CCCCCCCCNC(=O)CCl)CC(=O)N[C@H]1CCOC1=O [hal-11-Cl],–,–,3.1 ± 0.1 µM,–,–
"O=C(CCCCCCCCN=C=S)CC(=O)NC1CCOC1=O (stereo not drawn) [itc-11, 11-isothiocyanato-3-oxo-N-(2-oxotetrahydrofuran-3-yl)undecanamide]",covalently modified,~300 µM,39.1 ± 9.4 µM,–,–
O=C(CCCCCCCCCNC(=O)CCl)CC(=O)N[C@H]1CCOC1=O [hal-12-Cl],–,–,–,70 ± 27 µM,"IC50 ([4]; antagonism of LasR activation by 50 nM 3-oxo-C12-HSL, E. coli reporter, read-out: IC50, E. coli-based LasR antagonist studies): 1.1 ± 0.1 µM"
O=C(CCCCCCCCNC(=O)CBr)CC(=O)N[C@H]1CCOC1=O [hal-11-Br],–,–,26.8 ± 1.3 µM,–,–
